Earlier results, collected in US11446408B2, “Composition and methods for antimicrobial articles” (priority 2011, dated 2022).

Key:
Conditions in all cases: 10 minutes at 25 degrees Celsius
enteric bacteria = test system: enteric bacteria
amoebic cysts = test system: amoebic cysts
enteric viruses = test system: enteric viruses

**Q.** Which results are given for `II` [iodine]?
**A.** iodine sufficient to kill enteric bacteria (enteric bacteria): 0.2 PPM; iodine sufficient to kill amoebic cysts (amoebic cysts): 3.5 PPM; iodine sufficient to kill enteric viruses (enteric viruses): 14.6 PPM
